Literature values, collected in patent US20080104001A1, “ALGORITHM FOR ESTIMATION OF BINDING EQULIBRIA IN INCLUSION COMPLEXATION, HOST COMPOUNDS IDENTIFIED THEREBY AND COMPOSITIONS OF HOST COMPOUND AND PHARMACEUTICAL” (priority 2006, published 2008).

Conditions: by itself, without cyclodextrin

Structure (SMILES) | aqueous solubility
CCC(C)n1ncn(-c2ccc(N3CCN(c4ccc(OCC5COC(Cn6cncn6)(c6ccc(Cl)cc6Cl)O5)cc4)CC3)cc2)c1=O (stereo not shown) [itraconazole] | less than 0.1 microgram/mL

Conditions: cross-validation set; literature values

Structure (SMILES) | Log K(1:1) Measured
CN1C(=O)CC(=O)N(c2ccccc2)c2cc(Cl)ccc21 [clobazam] | 1.73
O=C1CN=C(c2ccccc2Cl)c2cc([N+](=O)[O-])ccc2N1 [clonazepam] | 1.9
OC1CCC1 [cyclobutanol] | 1.18
COc1ccc2c(c1)c(CC(=O)O)c(C)n2C(=O)c1ccc(Cl)cc1 [indomethacin] | 2.72
O=C(O)c1ccc(O)cc1 [p-hydroxybenzoic-acid] | 3.03

Same assay, conditions: training set; published stability constants (Connors, 1995)

Structure (SMILES) | Log K(1:1)
CC(=O)OCC(=O)[C@@]1(O)CC[C@H]2[C@@H]3CCC4=CC(=O)CC[C@]4(C)[C@H]3C(=O)C[C@@]21C [cortisone acetate] | 3.62
C1CCCCC1 [cyclohexane] | 2.19
O=C1CCCCC1 [cyclohexanone] | 2.71
C1CCCC1 [cyclopentane] | 1.95
c1ccc(Nc2ccccc2)cc1 [diphenylamine] | 3.03
Fc1ccccc1 [fluorobenzene] | 1.85
CC(C(=O)O)c1ccc(-c2ccccc2)c(F)c1 (stereo not shown) [flurbiprofen] | 3.71
CCCCCC(=O)O [hexanoic acid] | 2.47
Ic1ccccc1 [iodobenzene] | 2.9
CCC1(CC)C(=O)NC(=O)N(C)C1=O [metharbital] | 2.36
C1COCCN1 [morpholine] | 1.23
c1ccc2cc3cc4ccccc4cc3cc2c1 [naphthacene] | 3.53
O=C(O)c1ccc(O)cc1 [p-hydroxybenzoic-acid] | 3.03
c1ccc2c(c1)ccc1ccccc12 [phenanthrene] | 3.18
O=C1OC(c2ccc(O)cc2)(c2ccc(O)cc2)c2ccccc21 [phenolphthalein] | 4.56
CC(=O)OCC(=O)[C@@]1(O)CC[C@H]2[C@@H]3CCC4=CC(=O)C=C[C@]4(C)[C@H]3[C@@H](O)C[C@@]21C [prednisolone-21-acetate] | 3.76
CCCOC(=O)c1ccc(O)cc1 [propylparaben] | 2.97
c1cc2ccc3cccc4ccc(c1)c2c34 [pyrene] | 2.45
O=C(O)c1ccccc1O [salicylic-acid] | 2.63
ClC(Cl)(Cl)Cl [tetrachloromethane] | 2.18

Same assay, conditions: validation set; known binding constants

Structure (SMILES) | Log K(1:1)
CCCCCCCCCC(=O)O [decanoic acid] | 3.97
CCOC(=O)c1ccc(N)cc1 [ethyl-p-aminobenzoate] | 2.69
CC(=O)OCC(COC(C)=O)OC(C)=O [glyceryl triacetate] | 1.15
CC(=O)OCC(=O)[C@@]1(O)CC[C@H]2[C@@H]3CCC4=CC(=O)CC[C@]4(C)[C@H]3[C@@H](O)C[C@@]21C [hydrocortisone-21-acetate] | 3.51
Cc1ccc(C(=O)O)cc1 [p-toluic acid] | 3.23
